Test results reported in ChEMBL document CHEMBL4316584, “All that glitters is not gold: Panning cytotoxic natural products and derivatives with a fused tricyclic backbone by the estimation of their leadlikeness for cancer treatment” (Eur J Med Chem, 2019).
pIC50: −log10 of the molar value.

What was measured:
Type in all cases: functional, cell-based
HL-60 [1] = assay: Cytotoxicity against human HL60 cells after 48 hrs by MTT assay; details: HL-60, 48 h
HepG2 [2] = assay: Cytotoxicity against human HepG2 cells after 48 hrs by MTT assay; details: HepG2, 48 h
KB = assay: Cytotoxicity against human KB cells after 48 hrs by MTT assay
MCF7 [3] = assay: Cytotoxicity against human MCF7 cells after 48 hrs by MTT assay; details: MCF7, 48 h
HL-60 [4] = assay: Cytotoxicity against human HL60 cells after 48 hrs by MTS assay; details: HL-60, 48 h
MDA-MB-231 = assay: Cytotoxicity against human MDA-MB-231 cells after 48 hrs by MTT assay; details: MDA-MB-231, 48 h
K562 [5] = assay: Cytotoxicity against human K562 cells after 48 hrs by MTT assay; details: K562, 48 h
Bel-7402 [6] = assay: Cytotoxicity against human Bel7402 cells by MTT assay
MCF7 [7] = assay: Cytotoxicity against human MCF7 cells after 48 hrs by MTS assay; details: MCF7, 48 h
HT-29 = assay: Cytotoxicity against human HT-29 cells after 48 hrs by MTS assay; details: HT-29, 48 h
K562 [8] = assay: Cytotoxicity against human K562 cells after 48 to 72 hrs by MTT assay
Bel-7402 [9] = assay: Cytotoxicity against human Bel7402 cells after 48 hrs by MTT assay; details: Bel-7402, 48 h
Bel-7402 [10] = assay: Cytotoxicity against human Bel7402 cells after 44 hrs by MTT assay; details: Bel-7402, 44 h
HL-60 [11] = assay: Cytotoxicity against human HL60 cells after 48 to 72 hrs by MTT assay
HepG2 [12] = assay: Cytotoxicity against human HepG2 cells after 48 hrs by BrDU-incorporation based ELISA; details: HepG2, 48 h
MCF7 [13] = assay: Cytotoxicity against human MCF7 cells after 24 hrs by MTT assay; details: MCF7, 24 h

## CC(C)c1cc2c(cc1O)[C@@]1(C)C[C@H](O)CC(C)(C)[C@@H]1CC2
HL-60 [1]
  pIC50: 4.77

## O=C(NCCN1CCOCC1)c1cc(O)c2c(c1)C(=O)c1cc(O)cc(O)c1C2=O
HepG2 [2]
  pIC50: 4.70

## CCN(CC)CCOc1cc(O)c2c(c1)C(=O)c1cc(C)cc(O)c1C2=O
HepG2 [2]
  pIC50: 5.25

## COC1=CC(=O)C[C@@]2(OC)Oc3ccccc3C[C@@]12O
HL-60 [1]
  pIC50: 5.39

## COc1cc2oc3cc(O)c(CC=C(C)C)c(O)c3c(=O)c2c(CC=C(C)C)c1OC
KB
  pIC50: 4.89

## C#CCNC1=CC(=O)c2c(O)c3c(c(O)c2C1=O)C[C@](C)(O)[C@H](O)C3
HepG2 [2]
  pIC50: 4.96

## CC(C)=CCC/C(C)=C/Cc1c(O)ccc2oc3cc(O)cc(O)c3c(=O)c12
KB
  pIC50: 4.84

## COc1ccc(CNC2=CC(=O)c3c(O)c4c(c(O)c3C2=O)C[C@](C)(O)[C@H](O)C4)cc1
HepG2 [2]
  pIC50: 5.00

## C=C[C@@]1(C)C=C2[C@@H](O[C@@H]3O[C@H](C)[C@H](O)[C@H](O)[C@H]3O)C[C@@H]3C(C)(C)[C@H](O[C@@H]4O[C@@H](C)[C@H](O)[C@@H](O)[C@H]4O[C@H]4O[C@H](C)[C@H](O)[C@H](O)[C@H]4O)CC[C@@]3(C)[C@@H]2CC1
MCF7 [3]
  pIC50: 5.33

## c1ccc2c(c1)ncn2CCCCCn1c2ccccc2c2ccccc21
HL-60 [4]
  pIC50: 4.85

## O=C1c2cccc(O)c2C(=O)c2c(O)cc(Cn3ccc(=O)[nH]c3=O)cc21
HepG2 [2]
  pIC50: 5.41

## CC(C)=CCc1c(O)cc2oc3ccccc3c(=O)c2c1O
HepG2 [2]
  pIC50: 5.01

## O=C(NCCN1CCCCC1)c1cc(O)c2c(c1)C(=O)c1cc(O)cc(O)c1C2=O
HepG2 [2]
  pIC50: 4.72

## COC1=CC(=O)C[C@@]2(OC)Oc3ccc(O)cc3C[C@@]12O
HL-60 [1]
  pIC50: 4.98

## CCn1c2ccccc2c2cc(C3=NCCc4c3[nH]c3ccccc43)ccc21
HepG2 [2]
  pIC50: 5.64

## Cc1cc(O)c2c(c1)C(=O)c1cc(O)c(CN3CCN(C)CC3)c(O)c1C2=O
MDA-MB-231
  pIC50: 4.98

## COc1cc(Cn2c3ccc(NC(=O)CCN(C)C)cc3c(=O)c3cc(NC(=O)CCN(C)C)ccc32)cc(OC)c1
K562 [5]
  pIC50: 5.33

## CCOC(=O)c1cc2c3ccccc3n(Cc3c(F)c(F)c(F)c(F)c3F)c2cn1
Bel-7402 [6]
  pIC50: 5.05

## COc1ccc2oc3ccccc3c(=O)c2c1O
MCF7 [3]
  pIC50: 4.78

## Cc1cc(O)c2c(c1)C(=O)c1cc(OCCN3CCOCC3)cc(O)c1C2=O
MDA-MB-231
  pIC50: 5.37

## c1ccc2c(c1)ncn2CCCCn1c2ccccc2c2ccccc21
MCF7 [7]
  pIC50: 5.30

## COc1cc(-c2nc(Cn3cc(CN4C(=O)c5ccccc5C4=O)nn3)cc3c2[nH]c2ccccc23)cc(OC)c1OC
HT-29
  pIC50: 5.24

## CCOP(=O)(OCC)C(C)(NC(=O)c1cc(O)c2c(c1)C(=O)c1cccc(O)c1C2=O)c1ccccc1 (stereo not drawn)
HepG2 [2]
  pIC50: 4.74

## COCCOCSc1nnc(-c2cccnc2)n1/N=C/c1c2ccccc2cc2ccccc12
K562 [5]
  pIC50: 7.05

## COc1cc2oc3cc(O)c(OC)c(CC=C(C)C)c3c(=O)c2c(O)c1C/C=C(/C)CO
KB
  pIC50: 4.81

## CCSC1=C(SCC)C(=O)c2c(O)c3c(c(O)c2C1=O)C[C@@H](O)[C@@](C)(O)C3
HepG2 [2]
  pIC50: 4.94

## N#CC1=C(N)Oc2ccc3ccccc3c2C1c1ccc(Cl)cc1 (stereo not drawn)
KB
  pIC50: 4.93

## CCOP(=O)(OCC)C(C)(CCc1ccccc1)NC(=O)c1cc(O)c2c(c1)C(=O)c1cccc(O)c1C2=O (stereo not drawn)
HepG2 [2]
  pIC50: 5.05

## C[C@]1(O)Cc2c(O)c3c(c(O)c2C[C@H]1O)C(=O)C=C(N1CCC(c2ccccc2)CC1)C3=O
HepG2 [2]
  pIC50: 4.93

## O=c1c2ccc(O)cc2oc2cccc(O)c12
HepG2 [2]
  pIC50: 4.74

## COc1cc(O)c2c(c1O)C(=O)C1=C(C[C@@H](O)[C@@](C)(O)C1)C2=O
MCF7 [3]
  pIC50: 5.57
HepG2 [2]
  pIC50: 5.00

## COC1=CC(=O)c2c(ccc3cc(O)ccc23)C1=O
K562 [8]
  pIC50: 4.86

## COc1c(O)cc2oc3cc(O)c(C/C=C(/C)CO)c(O)c3c(=O)c2c1C/C=C(\C)CCC=C(C)C [COWANOL]
KB
  pIC50: 4.92

## CC(=O)Oc1cc(OC(C)=O)c2c(c1)C(=O)c1cc(C)cc(OC(C)=O)c1C2=O [EMODIN TRIACETATE]
MDA-MB-231
  pIC50: 5.67

## CC(C)=CCc1c(O)c(CC=C(C)C)c2oc3c(O)ccc(O)c3c(=O)c2c1O [GARTANIN]
Bel-7402 [9]
  pIC50: 5.11

## COc1c(O)cc2oc3cc(O)c(CC=C(C)C)c(O)c3c(=O)c2c1CC=C(C)C [MANGOSTIN]
KB
  pIC50: 4.85

## Cc1cc(=O)[nH]c2c1C(=O)c1ccccc1C2=O [MARCANIN A]
Bel-7402 [10]
  pIC50: 5.02

## COc1cc(O)cc2ccc3cccc(O)c3c12 [MOSCATIN]
HL-60 [11]
  pIC50: 4.72

## CC(C)=CCC/C(C)=C/Cc1c(O)c(O)cc2oc3cc(O)c(CC=C(C)C)c(O)c3c(=O)c12 [NORCOWANIN]
KB
  pIC50: 4.98

## c1ccc2nc3ccccc3nc2c1 [PHENAZINE]
HepG2 [12]
  pIC50: 5.11

## CCN(CC)CCCC(C)Nc1c2ccc(Cl)cc2nc2ccc(OC)cc12 (stereo not drawn) [QUINACRINE]
MCF7 [13]
  pIC50: 5.12

## CC(C)c1cc2c(cc1O)[C@@]1(C)CCCC(C)(C)[C@@H]1CC2=O [SUGIOL]
K562 [5]
  pIC50: 5.17
